# US20090031435A1, “SMA Therapy and Cell Based Assay” (priority 2002, published 2009)
# Legend:
# [1] = system: SMN2-luciferase reporter construct; assay: SMN2-luciferase splicing reporter luminescence assay in C33A cells; type: cell-based, human; details: for luminescence from the SMN2-luciferase reporter construct: screen at 10 μM, ~48 hr; for SMN2 luminescence/SMN1 luminescence: highest point of the curve of increase in SMN2-luciferase luminescence minus increase in SMN1-luciferase luminescence (treated/control), dilution series max 10 uM
# Experimental: (§1) In a screen to identify compounds capable of enhancing the inclusion of exon 7 in SMN2 mRNA, cells of the human cervical carcinoma cell line C33A (ATCC#HTB-31) were stably transformed with an SMN fragment/luciferase reporter gene construct that incorporated exons 6-8 of SMN1 or SMN2 for use in a high-throughput screening assay. These cells were cultured in Dulbecco's Modified Eagle's Medium (DMEM) with 10% Fetal Bovine Serum (Sigma F 2442), 50 units/mL penicillin 50 μg/mL streptomycin sulfate and 400 mg/L G418 (i.e. Geneticin, Gibco, cat. No. 11811-031). The assay medium used to perform the luciferase assay was identical to the growth medium except the G418 selection agent was omitted. To perform the luciferase assay, a single reagent (25 mM glycylglycine, 15 mM magnesium sulfate, 4 mM EGTA, adjusted to pH 7.85, to which is added 10 μM D-luciferin (Sigma L9504), 10 mM dithiothreitol (DTT, Roche Molecular Biochemicals 100034), 2 mM adenosine 5′-triphosphate (ATP, Sigma A7699), 50 μM CoenzymeA, sodium salt (Sigma C 3144) and 1.5% Triton X-100) was used to lyse the cells and to initiate the luciferase reaction.
# (§2) Using this cell-based luminescence assay, a screen was performed to identify compounds that modulate SMN splicing. Stably transfected C33A cells (˜35-40 M cells/flask) were cultured, then removed from T-175 culture flasks with 3 mL trypsin, and quenched with 7 mL assay medium. The cells were spun down and re-suspended in assay medium to a concentration of ˜200,000 cells/mL. Cells were immediately seeded in 384-well assay plates (Nalge Nunc white plates, #164610) 57 μL/well for a cell density of 11,000 cells/well. Compounds from a library obtained from the National Institute of Neurological Disorders and Stroke (NINDS) were added to the cells to a final concentration of 10 μM (diluted with assay medium by 1000× from the 10 mM stock solution in DMSO). The cells were incubated with the test compounds at 37° C. for ˜48 hr. A Zymark Sciclone ALH was used for cell seeding and compound addition. After incubation, the assay plates were cooled to room temperature for ˜10-60 minutes. The medium and compounds were aspirated from the wells, followed by 6 rinse/aspirate cycles with a PBS solution. 53 μL of the luciferase assay reagent was added and the plate was immediately transferred to a luminescence plate reader. The plate was shaken for 30 minutes prior to reading. The plate processing steps were performed on an integrated Packard Minitrak/Sidetrak platereader.
# (§3) To analyze the data, the dark count background was first subtracted from all luminescence readings. The signal from each compound treated well was divided by the average of 48 control wells on the same 384-well plate. Each compound library plate was tested in triplicate with each of the two cell lines, and the entire assay was repeated on two separate occasions, yielding six readings for each compound for each cell line. The highest and lowest of the six normalized readings were dropped and the remaining four readings averaged. These average values of compound-treated luminescence versus control luminescence are denoted “Xnorm(y)”, where X indicates the cell line, SMN1-luciferase or SMN2-luciferase, and y represents the compound. The difference of [SMN2norm(y)−SMN1norm(y)] measures the selective change in SMN2-luciferase expression versus change in SMN1 luciferase production upon treatment with compound y. This is the final score that is output.
# (§4) These dilutions were created with a Zymark Sciclone ALH Z-8. Once created, the assay was performed as described for the screening process. Concentrations required to achieve 50% of the maximally achievable effect for each compound (“EC50”) were calculated using Xlfit (IDBS).
# [2] = system: SMN1-luciferase control; assay: SMN1-luciferase control splicing reporter luminescence assay in C33A cells; type: cell-based, human
# Experimental: as §1, §2, §3, §4
Compound,Effect on splicing of SMN2-luciferase in C33A cells [1],Effect on splicing of SMN1-luciferase control in C33A cells [2],luminescence from the SMN2-luciferase reporter construct [1],SMN2 luminescence/SMN1 luminescence [1]
"Methyl 2-[4-(1,3-dioxo-2,3-dihydro-1H-isoindol-2-yl)phenyl . . .",None,–,–,–
"O=C(O)CCCN1C(=O)c2ccccc2C1=O [2H-isoindol-2-butanoic, 1,3-dihydro-1,3-dioxo]",None,None,–,–
O=C(O)CCC(C(=O)O)N1Cc2ccccc2C1=O (stereo not drawn) [2-Phthalimidino-glutaric acid],None,None,–,–
"CN1C(=O)c2ccccc2C1(O)C(C)(c1ccccc1)c1ccccc1 (stereo not drawn) [3-(1,1-diphenylethyl)-3-hydroxy-2-methyl-1-isoindolinone]",None,–,–,–
CC(C(=O)O)c1cccc(C(=O)c2ccccc2)c1 (stereo not drawn) [ketoprofen],–,–,None of these compounds resulted in increased luminescence,–
CC(=O)Oc1ccccc1C(=O)O [aspirin],–,–,None of these compounds resulted in increased luminescence,–
CC(C(=O)O)c1ccc(-c2ccccc2)c(F)c1 (stereo not drawn) [flurbiprofen],–,–,None of these compounds resulted in increased luminescence,–
"O=C1C=C2C(=CCOC2O)O1 (stereo not drawn) [Patulin, patulin]",–,–,increased luminescence,0.7
CC(=O)Nc1ccc(O)cc1 [acetominophen],–,–,None of these compounds resulted in increased luminescence,–
"CC[C@@]1(O)C(=O)OCc2c1cc1n(c2=O)Cc2cc3ccccc3nc2-1 [Camptothecin, camptothecin]",–,–,increased luminescence,0.4
"CO[C@@]1(NC(=O)Cc2cccs2)C(=O)N2C(C(=O)O)=C(COC(N)=O)CS[C@@H]21 [Cefoxitin sodium, cefoxitin sodium]",–,–,increased luminescence,0.3
"Methyl 2-[4-(1,3-dioxo-2,3-dihydro-1H-isoindol-2-yl)-3-me . . .",None,–,–,–
"O=C1NCc2ccccc21 [1H-isoindol-1-one, 2,3-dihydro-]",None,None,–,–
CN1C(=O)c2ccc(-c3ccccc3)cc2C1(O)C(C)(C)C (stereo not drawn) [1-tert-butyl-1-hydroxy-2-methyl-6-phenyl-3-isoindolinone],None,–,–,–
"Cc1ccc(N2C(=O)c3ccccc3C2C(=O)c2cc(O)ccc2O)cc1 (stereo not drawn) [3-(2,5-hydroxybenzoyl)-2-(4-methylphenyl)-1-isoindolinone]",None,–,–,–
"O=C1c2ccccc2CN1c1ccccc1 [1H-isoindol-1-one, 2,3-dihydro-2-phenyl]",None,None,–,–
CC(C(=O)O)c1cccc(Oc2ccccc2)c1 (stereo not drawn) [fenoprofen],–,–,None of these compounds resulted in increased luminescence,–
CC(C)Cc1ccc(C(C)C(=O)O)cc1 (stereo not drawn) [ibuprofen],–,–,None of these compounds resulted in increased luminescence,–
CC(C(=O)O)c1ccc(C(=O)c2cccs2)cc1 (stereo not drawn) [suprofen],–,–,None of these compounds resulted in increased luminescence,–
COc1ccc2c(c1)c(CC(=O)O)c(C)n2C(=O)c1ccc(Cl)cc1 [1-(4-Chlorobenzoyl)-5-methoxy-2-methyl-3-indoleacetic acid],None,None,–,–
NC12CC3CC(CC(C3)C1)C2 [amantadine],–,–,increased luminescence,0.3
O=C1c2ccccc2C(O)(c2ccc(Cl)cc2)N1OC1CCCCO1 (stereo not drawn) [3-(4-chlorophenyl)-3-hydroxy-2-(tetrahydropyran-2-yloxy)-1-isoindolinone],None,–,–,–
"Cc1ccc(N2C(=O)c3ccccc3C2C(=O)c2ccc(O)cc2O)cc1 (stereo not drawn) [3-(2,4-hydroxybenzoyl)-2-(4-methylphenyl)-1-isoindolinone]",None,–,–,–
"O=C(O)C(Cc1ccccc1)N1Cc2ccccc2C1=O (stereo not drawn) [2H-isoindol-2-acetic acid, 1,3-dihydro-1-oxo-alpha-(phenylmethyl)- . . .]",None,None,–,–
Cc1ccc(N2C(=O)c3ccccc3C2C(=O)c2cc(C)ccc2O)cc1 (stereo not drawn) [3-(2-hydroxy-5-methylbenzoyl)-2-(4-methylphenyl)-1-isoindolinone],None,–,–,–
"CCC(CC)(CC)C1(O)c2ccccc2C(=O)N1C (stereo not drawn) [3-(1,1-diethylpropyl)-3-hydroxy-2-methyl-1-isoindolinone]",None,–,–,–
"[O-][n+]1ccccc1[S-].[O-][n+]1ccccc1[S-].[Zn+2] [Pyrithione zinc, pyrithione zinc]",–,–,increased luminescence,1.0
"Cc1ccc(C(CC(=O)O)N2Cc3ccccc3C2=O)cc1 (stereo not drawn) [2H-isoindol-2-propanoic acid, 1,3-dihydro-beta-(4-methylphenyl)-1-oxo]",None,None,–,–
"CC(O)c1ccc(N2Cc3ccccc3C2=O)cc1 (stereo not drawn) [1H-isoindol-1-one, 2,3-dihydro-2-[4-91-hydroxyethyl)phenyl]]",Increased,Increased,–,–
